How the values were obtained:
E006AA cell lines = experiment: Migration of E006AA-Par and E006AA-hT prostate cancer cells; assay type: cell-based, human
Excerpt: FIG. 15: Lentiviral shRNA suppression of human GRβ in E006AA-Par and E006AA-hT prostate cancer cells suppresses migration. *, P<0.05 and **, P<0.01 (scramble vs GRβ KD). N=12.

human GRβ mRNA = experiment: GRβ mRNA expression by Real-Time PCR in T24 cells; assay type: cell-based
Description: The human uroepithelial carcinoma cell lines UMUC-3 and T24 (ATCC) were routinely cultured and maintained in Minimum Essential Medium (MEM) containing 10% fetal bovine serum (FBS) with 1% antibiotic-antimycotic. Cells were maintained at 37° C. and 5% CO2. Media was changed to MEM containing 10% Dialyzed-FBS with 1% antibiotic antimycotic 24 hours before hormone treatments.
A peptide nucleic acid (PNA) (Sweet-P) conjugated to a cell penetrating peptide (CPP) targeting the miR144 binding site in the 3′UTR of the human GRβ was designed using the PANAGENE® website (www.panagene.com). The Sweet-P targeting sequence was: (TGCCATACACAGTAT) [SEQ ID NO:1]. The Sweet-P sequence targeted the miR144 binding site in the 3′ UTR of human GRβ. (FIG. 7.) All PNAs were attached to an O-linker and a modified tat protein (VQRKRQKLMP) [SEQ ID NO:2] for delivery into the cell. Treatment with Sweet-P was performed for 48 hrs before the cells were analyzed.

T24 bladder cancer cells = experiment: Scratch (wounding) migration assay in T24 cells; assay type: cell-based, human
Description: Cells were seeded on a 6-well plate and grown for 24 hours until a monolayer of 90% confluent cells was obtained. A scratch wound in the cell monolayer was introduced using a sterile pipette tip. Images were taken at the time of wounding, and every 5 hours thereafter. Migration was measured as the fold change of the width of the wound remaining. To determine miRNA and mRNA expression during the scratch (wounding assay), total RNA was collected using the miRNeasy® Mini Kit (Qiagen) (described above) at 0 and 3 hours after the migration.

GRα [1] = molecular target: T1, GRα (Homo sapiens, UniProt P04150); experiment: GRα controlled gene expression by Real-Time PCR in T24 cells; assay type: cell-based; details: Sweet-P 48 hours then 2 hours of dexamethasone
T1 construct: endogenous in cells; host or cells: T24 human uroepithelial carcinoma cells (ATCC)
T1 sequence (P04150 1-777): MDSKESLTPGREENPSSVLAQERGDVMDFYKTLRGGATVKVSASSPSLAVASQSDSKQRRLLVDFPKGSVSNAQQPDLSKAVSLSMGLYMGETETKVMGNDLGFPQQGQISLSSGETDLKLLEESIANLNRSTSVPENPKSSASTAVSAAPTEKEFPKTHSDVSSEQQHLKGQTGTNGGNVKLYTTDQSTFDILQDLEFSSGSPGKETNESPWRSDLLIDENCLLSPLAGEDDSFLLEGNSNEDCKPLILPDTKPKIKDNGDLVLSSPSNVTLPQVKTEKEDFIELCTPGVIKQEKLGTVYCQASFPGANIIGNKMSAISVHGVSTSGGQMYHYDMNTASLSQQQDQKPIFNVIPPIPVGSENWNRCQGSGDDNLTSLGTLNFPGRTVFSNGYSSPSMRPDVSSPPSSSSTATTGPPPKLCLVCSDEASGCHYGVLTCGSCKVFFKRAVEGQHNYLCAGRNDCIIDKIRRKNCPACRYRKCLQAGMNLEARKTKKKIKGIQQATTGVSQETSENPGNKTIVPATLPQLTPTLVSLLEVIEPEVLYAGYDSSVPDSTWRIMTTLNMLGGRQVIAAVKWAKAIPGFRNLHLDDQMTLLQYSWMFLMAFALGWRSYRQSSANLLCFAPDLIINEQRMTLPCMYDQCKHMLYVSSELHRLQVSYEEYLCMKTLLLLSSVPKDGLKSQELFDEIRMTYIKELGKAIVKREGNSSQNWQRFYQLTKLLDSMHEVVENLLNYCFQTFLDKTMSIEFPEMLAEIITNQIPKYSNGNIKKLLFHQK
Description: GRα controlled gene response was measured by Real-Time PCR for FKBP51, GILZ, p21, VEGFA, GRα, and GRβ. Cells were seeded in media containing 10% dialyzed FBS for 24 hours before treatment.
Total RNA was extracted from cell cultures using the 5-Prime PerfectPure® RNA Cell Kit (Fisher Scientific Company, LLC). Total RNA was read on a NanoDrop 2000® spectrophotometer (ThermoFisher Scientific, Wilmington, Del.) and cDNA was synthesized using High Capacity cDNA Reverse Transcription Kit (Applied Biosystems). PCR amplification of the cDNA was performed by quantitative real-time PCR using TrueAmp SYBR Green qPCR SuperMix® (Smart Bioscience). The thermocycling protocol consisted of 10 min at 95° C., 40 cycles of 15 sec at 95° C., 30 sec at 60° C., and 20 sec at 72° C., and finished with a melting curve ranging from 60-95° C. to allow distinction of specific products. Normalization was performed in separate reactions with primers to GAPDH.

GRα [2] = experiment: Immunofluorescence of GRα in T24 cells; assay type: cell-based, human
Description: (§1) FIGS. 3A-3D: Dexamethasone and insulin treatment in T24 cells (FIGS. 3A-3B) and UMUC-3 cells (FIGS. 3C-3D). GRβ and GRα expression and location were measured using immunofluorescence with control (vehicle treatment), dexamethasone, or insulin treatments. Cells were seeded onto coverslips in media containing 10% dialyzed FBS for 24 hours before treating. Cells were treated with 100 nM insulin, 100 nM dexamethasone, or vehicle for 30 minutes. Secondary antibodies (labeling of human GRα or GRβ) are shown in green, DAPI (nuclei labeling) are shown in blue, a merge of the green and blue images are shown in panel 3 to represent localization, and a bright field image is shown in gray (scale bar=25 μm).
Cells were seeded onto a glass coverslip placed in a 6-well plate and grown were grown to desired confluence. Cells were then fixed with 3% paraformaldehyde, permeated with PBS containing 0.25% Triton X (PBST), and blocked with PBST containing 1% BSA. Slides were then stained with either anti-hGRα Rabbit IgG or anti-hGRβ Rabbit IgG antibodies obtained from Antibody Research. Secondary staining was performed using anti-Rb IgG 488 antibody from Life Technologies. Coverslips were planted onto slides with Fluoromount-G®, and DAPI was added to stain nuclei. Slides were magnified using a Leica Microscope with a 63X oil Immersion lens. […]

3′UTR of human GRβ = experiment: 3′UTR GRβ-Luc luciferase reporter assay in T24 cells; assay type: cell-based; details: Sweet-P at 0.1 nM, 1.0 nM, and 10 nM, 48 hours, versus 0 nM
Description: For transient transfection, cells were plated on a 6-well or 12-well dish in MEM containing 10% FBS. Cells were washed with OPTI-MEM and transfected using GeneFect® (Alkali Scientific, Inc.), according to the manufacturer's […] protocol. OPTI-MEM was removed after 12 h and MEM containing 10% FBS was added.
The expression vector pMirTarget containing the 3′UTR of hGRβ (hGRβ 3′UTR-luc) was purchased from Origene. The binding sites were mutated using the QuikChange Lightning Multi Site-Directed Mutagenesis Kits® (Agilent Technologies). Successful mutations were confirmed through sequencing by Operon MWG. Cells were seeded onto a 12-well plate and grown overnight. Transient transfection was performed as described above. To determine the effect of Sweet-P on the T24 bladder cancer cells, the cells were treated 24 h after transfection for 48 hours post transfection, 3′UTR GRβ-Luc WT or mutant expression was measured by luciferase, and pRL-CMV Renilla reporter for normalization to transfection efficiency, using the Promega dual luciferase assay system (Promega, Madison, Wis.).
A peptide nucleic acid (PNA) (Sweet-P) conjugated to a cell penetrating peptide (CPP) targeting the miR144 binding site in the 3′UTR of the human GRβ was designed using the PANAGENE® website (www.panagene.com). […] Treatment with Sweet-P was performed for 48 hrs before the cells were analyzed.

GRβ [3] = experiment: GRβ expression in A549 lung cancer cells; assay type: cell-based, human
Excerpt: (§2) FIG. 10: Sweet-P blocks GRβ expression in lung and prostate cancer cells.

GRβ [4] = experiment: GRβ expression in E006AA-Par prostate cancer cells; assay type: cell-based, human
Excerpt: as §2

mTOR = experiment: Immunostaining of mTOR in T24 cells; assay type: cell-based, human; details: 10 nM Sweet-P, 48 hours
GRβ [5] = experiment: Immunofluorescence of GRβ in T24 cells; assay type: cell-based, human
PTEN = experiment: Immunostaining of PTEN in T24 cells; assay type: cell-based, human; details: 10 nM Sweet-P, 48 hours
T24 cells = experiment: miRNA expression by Real-Time PCR in T24 cells; assay type: cell-based, human; details: 100 nM Insulin, 2 hours
Description: FIGS. 8A-8B: […] ANOVA p<0.001; Bonferoni comparisons ***, […]=6). […] Total RNA was extracted from cell cultures using the miRNeasy® Mini Kit (Qiagen). […] The miScript Primer Assay® primers were purchased from Qiagen. Normalization was performed in separate reactions with primers to Hs_RNU6-2_11, At_U19_1, and Hs_SNORD61_11. The cloning vector pCMV-MIR containing the miR144 sequence was purchased from Origene. Cells were seeded on a 6-well plate, and transient transfection of the plasmid was completed as described above. After 48 hours-post transfection, RNA was harvested.

GRα [6] = experiment: Immunofluorescence of GRα in UMUC-3 cells; assay type: cell-based, human; details: 100 nM, 30 minutes, versus vehicle
Description: as §1, with “Cells were seeded onto coverslips in media containing 10% dialyzed FBS for 24 hours before treating.” left out
(§3) Cells were seeded onto a glass coverslip placed in a 6-well plate and grown were grown to desired confluence. […] Slides were then stained with either anti-hGRα Rabbit IgG or anti-hGRβ Rabbit IgG antibodies obtained from Antibody Research. […] Coverslips were planted onto slides with Fluoromount-G®, and DAPI was added to stain nuclei. Slides were magnified using a Leica Microscope with a 63X oil Immersion lens. Images were acquired in the XYZ plane in 1 μm steps with a 63X oil objective (NA 1.40). Images were acquired with the LAS AF® software in sequential scan mode. AlexaFluor488® was excited at 488 nm with collection at 500-558 nm and DAPI was excited with the multi-photon (MP) laser tuned to 790 nm with collection at 420-500 nm. Images are 2D projections of the of image stack as labeled. […]

UMUC-3 cells = experiment: miRNA expression by Real-Time PCR in UMUC-3 cells; assay type: cell-based, human; details: 100 nM Insulin, 2 hours
Description: FIGS. 8A-8B: The effect of dexamethasone treatment on cell migration and miRNA expression in UMUC-3 and T24 bladder cancer cells. Migration was measured in the UMUC-3 and T24 cells that were treated with either vehicle or 100 nM dexamethasone for 30 minutes prior to wounding, and is presented as the fold-change in the wound width remaining (FIG. 8A). Images of the migration assay at […] post wounding are shown, with wound edges marked at T0 (black solid line) and T15 (white dashed line). ANOVA p<0.001; Bonferoni comparisons ***, p<0.0001 (versus Vehicle) (±S.E.; n=6). Total RNA was extracted from the UMUC3 and T24 cells after treating with either vehicle, 100 nM dexamethasone, or 100 nM Insulin in dialyzed media for 2 hours before harvesting, and miRNA expression was measured by Real-Time PCR (FIG. 8B). *, p<0.05; (Dex versus Veh); $, p<0.05; (Ins versus Veh); ##, p<0.01; ##, p<0.001; (T24 versus UMUC3) (±S.E.; n=6).
Total RNA was extracted from cell cultures using the miRNeasy® Mini Kit (Qiagen). Total RNA was read on a NanoDrop 2000® spectrophotometer (Thermo Fisher Scientific, Wilmington, Del.) and cDNA was synthesized using the miScript RT Kit (Qiagen). […] The miScript Primer Assay® primers were purchased from Qiagen. Normalization was performed in separate reactions with primers to Hs_RNU6-2_11, At_U19_1, and Hs_SNORD61_11.

GRβ [7] = experiment: Immunofluorescence of GRβ in UMUC-3 cells; assay type: cell-based, human; details: 100 nM, 30 minutes
Description: as §1, with “Cells were seeded onto coverslips in media containing 10% dialyzed FBS for 24 hours before treating.” left out
as §3

[8] = 100 nM, 30 minutes, versus vehicle

Substance: GRβ shRNA: pGFP-C-shLenti lentiviral GRβ shRNA (CCAGAAAGCACATCTCACACATTAATCTG) [reference compound]
- migration (E006AA cell lines; E006AA prostate cancer cells, lentiviral shRNA versus scramble): significant reduction
- knockdown of GRβ expression (reduction) (human GRβ mRNA; stable shRNA lentivirus, versus T24 Scramble): 64%
- migration (T24 bladder cancer cells; T24 GRβ shRNA cells versus T24 Scramble): significant (ANOVA: p<0.001) decrease

Substance: Sweet-P: PNA TGCCATACACAGTAT [SEQ ID NO:1] attached to an O-linker and modified tat protein VQRKRQKLMP, targeting the miR144 binding site in 3′UTR of human GRβ (all peptide nucleic acid (PNA); O-linker and modified tat peptide attached, position not given here)
- migration (E006AA cell lines; E006AA-Par and E006AA-hT cells, Sweet-P): significantly decreased
- FKBP51 expression (GRα activity) (GRα [1]): enhancing expression
- tumor necrosis factor α (TNFα) expression (GRα activity) (GRα [1]): decreasing
- GRα protein expression (GRα [2]; 10 nM Sweet-P, 48 hours): no effect
- luciferase expression of the pMirTarget 3′ UTR hGRβ construct (3′UTR of human GRβ): significantly (p<0.001) reduced
- GRβ expression (GRβ [3]): blocks
- GRβ expression (GRβ [4]): blocks
- GRβ mRNA expression (human GRβ mRNA; Sweet-P at 1.0 nM, 10 nM, 50 nM, and 100 nM, 48 hours, versus 0 nM): significantly (p<0.05) decreased
- mTOR protein expression (mTOR): unaffected
- GRβ protein expression (GRβ [5]; 10 nM Sweet-P, 48 hours): reduced
- migration (wound width remaining) (T24 bladder cancer cells; T24 cells, 10 nM Sweet-P for 48 hours prior to wounding): significantly (ANOVA: p<0.001) inhibited
- PTEN protein expression (PTEN): significantly (p<0.0001) increased

Substance: insulin: insulin, hormone treatment at 100 nM
- GRα expression (immunofluorescence) (GRα [2]; [8]): significantly decreased (p<0.001)
- expression of miR-33a, miR-144, miR-181a, miR-181b, miR-181c, or miR-181d (T24 cells): did not significantly change
- GRα expression (immunofluorescence) (GRα [6]): no effect
- miR-181a expression (UMUC-3 cells): suppress
- GRβ localization (GRβ [5]; 100 nM, 30 minutes): no change
- GRβ expression (immunofluorescence) (GRβ [5]; [8]): significantly increased
- GRβ localization (GRβ [7]): higher in the nucleus
- GRβ expression (immunofluorescence) (GRβ [7]; versus vehicle): significantly increased
